Positions count from the first letter of the chain named. Where two headings read alike, the source gives them in different places. Ends that are not written are not given here.
How the values were obtained:
Experiment in all cases: biochemical
[1] = biological target: HLA-DR DRB1*08:02 (Homo sapiens, UniProt P01903+P01911, A100R/A103L/A169T/F76Y/H45Y/I96F/K41T/L162R/M171V/P40S/Q125H/Q178H/Q39Y/Q99D/R218S/R42G/S66Y/V115G/W38E); format: binding
[2] = biological target: T1, HLA-DP DPA1*02:01/DPB1*05:01 (Homo sapiens, UniProt P04440+P20036, A65V/A84E/F191V/F64L/G113D/G114E/K142R/L158P/M116V/M62Q/P115A/Q81R/R125K/T114A/T199I/T259P/V234M); format: binding; details: read-out: Binding capacity/IC50 (nM) DPA1*02:01 DPB1*05:01
T1 sequence (P20036 29-260 A42M/M62Q/Q81R/T114A/K142R/L158P/F191V/T259P): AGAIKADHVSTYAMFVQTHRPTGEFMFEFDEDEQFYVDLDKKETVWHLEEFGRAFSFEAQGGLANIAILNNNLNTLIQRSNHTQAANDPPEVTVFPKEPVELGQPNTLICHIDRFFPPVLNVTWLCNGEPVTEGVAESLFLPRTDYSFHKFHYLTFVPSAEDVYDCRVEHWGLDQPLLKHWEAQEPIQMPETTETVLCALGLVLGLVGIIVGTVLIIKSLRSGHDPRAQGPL
T1 sequence (P04440 30-258 F64L/A65V/A84E/G113D/G114E/P115A/M116V/R125K/T199I/V234M): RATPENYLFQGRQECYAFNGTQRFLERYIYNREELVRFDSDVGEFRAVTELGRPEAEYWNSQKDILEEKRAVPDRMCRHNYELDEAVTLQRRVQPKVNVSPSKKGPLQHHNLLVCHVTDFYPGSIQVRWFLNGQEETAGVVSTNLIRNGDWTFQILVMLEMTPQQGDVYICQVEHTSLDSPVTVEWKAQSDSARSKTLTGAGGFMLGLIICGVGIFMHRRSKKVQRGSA

[3] = biological target: HLA-DR DRB1*11:01 (Homo sapiens, UniProt P01903+P01911, A100R/A169T/A87E/I96F/K41T/L162R/M171V/P40S/Q125H/Q178H/Q39Y/Q99D/R42S/S66Y/T262R/V115G/W38E); format: binding
[4] = biological target: HLA-DR DRB1*04:01 (Homo sapiens, UniProt P01903+P01911, A100K/A169T/F76Y/I96L/K127E/L162R/M171V/N62H/P40V/Q125Y/R42H/S133A/S149N/S66Y/V115G/V209L/W38E); format: binding
[5] = biological target: HLA-DP DPA1*02:01/DPB1*01:01 (Homo sapiens, UniProt P04440+P20036, F191V/F38Y/F64Y/G113D/G114E/K142R/L158P/L37V/M105V/M116V/M62Q/P115A/Q81R/R125K/R223Q/T114A/T199I/T259P)
[6] = biological target: HLA-DR DRB1*16:02 (Homo sapiens, UniProt P01903+P01911, A100R/F76Y/I96L/Q99D/V115G); format: binding
[7] = biological target: HLA-DR DRB1*13:02 (Homo sapiens, UniProt P01903+P01911, A100E/A169T/K41T/L162R/M171V/P40S/Q125H/Q178H/Q39Y/Q99D/R42S/S66N/T262R/V115G/W38E/Y61H); format: binding
[8] = biological target: T2, HLA-DP DPA1*01:03/DPB1*03:01 (Homo sapiens, UniProt P04440+P20036, A65V/A84D/A85E/E86D/F38Y/G113D/G114E/G40L/I94L/L37V/M105V/M116V/P115A/R125K/T199I); format: binding
T2 sequence (P20036 29-260): T1 sequence (P20036 29-260 A42M/M62Q/Q81R/T114A/K142R/L158P/F191V/T259P) with M14A, Q34M, R53Q, A86T, R114K, P130L, V163F, P231T
T2 sequence (P04440 30-258 L37V/F38Y/G40L/A65V/A84D/A85E/E86D/I94L/M105V/G113D/G114E/P115A/M116V/R125K/T199I): T1 sequence (P04440 30-258 F64L/A65V/A84E/G113D/G114E/P115A/M116V/R125K/T199I/V234M) with L8V, F9Y, G11L, L35F, E55D, A56E, E57D, I65L, M76V, M205V

[9] = biological target: T3, HLA-DP DPA1*01:03/DPB1*20:01 (Homo sapiens, UniProt P04440+P20036, A65V/A84D/A85E/E86D/F38Y/G113D/G114E/G40L/I94L/L37V/M116V/P115A/R125K/T199I); format: binding
T3 sequence (P20036 29-260): T1 sequence (P20036 29-260 A42M/M62Q/Q81R/T114A/K142R/L158P/F191V/T259P) with M14A, Q34M, R53Q, A86T, R114K, P130L, V163F, P231T
T3 sequence (P04440 30-258 L37V/F38Y/G40L/A65V/A84D/A85E/E86D/I94L/G113D/G114E/P115A/M116V/R125K/T199I/V234M): T1 sequence (P04440 30-258 F64L/A65V/A84E/G113D/G114E/P115A/M116V/R125K/T199I/V234M) with L8V, F9Y, G11L, L35F, E55D, A56E, E57D, I65L

[10] = biological target: HLA-DR DRB1*04:05 (Homo sapiens, UniProt P01903+P01911, A100R/A169T/D86S/F76Y/I96L/K127E/L162R/M171V/N62H/P40V/Q125Y/R42H/S133A/S149N/S66Y/V115G/V209L/W38E); format: binding
[11] = biological target: HLA-DR DRB4*01:01 (Homo sapiens, UniProt P01903+P13762, G164S); format: binding
[12] = biological target: HLA-DR DRB5*01:01 (Homo sapiens, UniProt P01903+Q30154); format: binding
[13] = read-out: Binding capacity/IC50 (nM) DPA1*01:03 DPB1*03:01
[14] = read-out: Binding capacity/IC50 (nM) DPA1*01:03 DPB1*20:01
[15] = read-out: Binding capacity/IC50 (nM) DRB4*01:01
[16] = read-out: Binding capacity/IC50 (nM) DRB5*01:01
[17] = read-out: Binding capacity/IC50 (nM) DRB1*08:02
[18] = read-out: Binding capacity/IC50 (nM) DRB1*11:01
[19] = read-out: Binding capacity/IC50 (nM) DRB1*04:01
[20] = read-out: Binding capacity/IC50 (nM) DRB1*16:02
[21] = read-out: Binding capacity/IC50 (nM) DRB1*13:02
[22] = read-out: Binding capacity/IC50 (nM) DRB1*04:05

Compound | IC50 [1] [nM] | IC50 [2] [nM] | IC50 [3] [nM] | IC50 [4] [nM] | IC50 [5] [nM] | IC50 [6] [nM] | IC50 [7] [nM] | IC50 [8, 13] [nM] | IC50 [9, 14] [nM] | IC50 [10] [nM] | IC50 [11, 15] [nM] | IC50 [12, 16] [nM] | IC50 [8] [nM] | IC50 [1, 17] [nM] | IC50 [3, 18] [nM] | IC50 [4, 19] [nM] | IC50 [6, 20] [nM] | IC50 [7, 21] [nM] | IC50 [10, 22] [nM] | also measured
CC[C@H](C)[C@H](NC(=O)[C@H](C)NC(=O)[C@H](CCCCN)NC(=O)[C@H](CCCCN)NC(=O)CNC(=O)[C@H](CS)NC(=O)[C@@H](NC(=O)[C@H](CCC(=O)O)NC(=O)[C@@H](NC(=O)[C@H](CC(C)C)NC(=O)[C@@H](NC(=O)[C@H](CCC(N)=O)NC(=O)[C@H](CC(=O)O)NC(=O)[C@H](Cc1ccc(O)cc1)NC(=O)[C@H](CCC(N)=O)NC(=O)[C@H](CCCNC(=N)N)NC(=O)[C@@H](NC(=O)[C@H](CCCCN)NC(=O)[C@@H](NC(=O)[C@@H](N)Cc1ccccc1)[C@@H](C)CC)C(C)C)[C@@H](C)CC)[C@@H](C)CC)[C@@H](C)CC)C(=O)NCC(=O)N[C@H](C(=O)N[C@H](C(N)=O)C(C)C)[C@@H](C)O [protease(53-75)] | 325 | 53 | 1360 | 675 | 112 | 388 | 4080 | 9.4 | 19 | 282 | 302 | 93 | – | – | – | – | – | – | – | –
CC[C@H](C)[C@H](NC(=O)[C@H](C)NC(=O)[C@@H](N)CCC(=O)O)C(=O)N[C@H](C(=O)N[C@@H](CCCNC(=N)N)C(=O)N[C@H](C(=O)N[C@@H](CC(C)C)C(=O)N[C@@H](CCC(N)=O)C(=O)N[C@@H](CCC(N)=O)C(=O)N[C@@H](CC(C)C)C(=O)N[C@@H](CC(C)C)C(=O)N[C@@H](Cc1ccccc1)C(=O)N[C@H](C(=O)N[C@@H](Cc1c[nH]cn1)C(=O)N[C@@H](Cc1ccccc1)C(=O)N[C@@H](CCCNC(=N)N)C(=O)N[C@H](C(=O)NCC(=O)N[C@@H](CS)C(=O)N[C@@H](CCC(N)=O)C(=O)N[C@@H](Cc1c[nH]cn1)C(=O)N[C@@H](CO)C(=O)N[C@@H](CCCNC(=N)N)C(N)=O)[C@@H](C)CC)[C@@H](C)CC)[C@@H](C)CC)[C@@H](C)CC [vpr(58-80)] | 61 | 2990 | 724 | 361 | 2630 | 588 | 5010 | – | – | 294 | – | 443 | 348 | – | – | – | – | – | – | IC50 [9]: 398 nM; IC50 [11]: 475 nM
SEELRSLYNTVATLYCVHQ-NH2 [p17(72-90)] | – | 1900 | – | – | 860 | – | – | – | 2310 | – | 1100 | 435 | 1740 | 73 | 1070 | 279 | 140 | 1050 | 421 | –
VVIQDNSDIKVVPRRKAKII-NH2 [integrase(249-268)] | 89 | 329 | 28 | 2870 | 5730 | 500 | 5420 | 350 | 1080 | 6080 | 847 | – | – | – | – | – | – | – | – | IC50 [12]: 46 nM
YAKMRSAHTNDVKQL-NH2 [RT(354-368)] | – | 2190 | – | – | 4430 | – | – | – | 202 | – | 1440 | 80 | 11900 | 2.1 | 1760 | 79 | 58 | 74 | 926 | –

Reference: paper PMC3445454, “Broad and Cross-Clade CD4^+ T-Cell Responses Elicited by a DNA Vaccine Encoding Highly Conserved and Promiscuous HIV-1 M-Group Consensus Peptides” (PLoS ONE, 2012)
